ChEMBL document CHEMBL4825698, “Identification of novel benzothiopyranones with ester and amide motifs derived from active metabolite as promising leads against Mycobacterium tuberculosis” (Eur J Med Chem, 2021)
Converted amounts (≈) assume the structure as drawn.

Legend:
[1] = tested on: Mycobacterium tuberculosis; assay: Antimycobacterial activity against Mycobacterium tuberculosis H37Rv assessed as bacterial growth inhibition incubated for 7 days by MABA assay; format: functional; details: 168 h, time 7 day
Vero = assay: Cytotoxicity against African green monkey Vero cells assessed as reduction in cell viability after 48 hrs by MTT assay; format: cell-based; details: Chlorocebus sabaeus
[2] = Metabolic stability in pooled mouse hepatocytes assessed as parent compound remaining after 30 mins; format: ADME, cell-based, Hepatocyte; details: read-out: Stabilty
[3] = Metabolic Stability in pooled human hepatocytes assessed as parent compound remaining after 30 mins; format: ADME, cell-based, Hepatocyte; details: read-out: Stabilty
[4] = Metabolic stability in pooled mouse hepatocytes assessed as half life; format: ADME, cell-based, Hepatocyte
[5] = Metabolic stability in pooled human hepatocytes assessed as half life; format: ADME, cell-based, Hepatocyte
[6] = Solubility of the compound in water measured after 20 mins by HPLC analysis; format: physicochemical
[7] = Toxicity in BALB/c mouse infected with Mycobacterium tuberculosis H37Rv assessed as body weight at 100 mg/kg, po via gavage administered for 3 weeks starting from day 10 post infection and administered 5 times a week (reference value: 24.59 +/- 0.61 g); format: organism-based; details: in vivo, 504 h
[8] = tested on: Mycobacterium tuberculosis; assay: (§1) Antimycobacterial activity against Mycobacterium tuberculosis H37Rv infected in BALB/c mouse model of acute tuberculosis infection assessed as log change in bacterial burden in mouse lung at 100 mg/kg, po via gavage administered for 3 weeks starting from day 10 post infection and administered 5 times a week (reference value: 4.94 +/-0.06 1og10CFU); format: functional
[9] = Toxicity in BALB/c mouse infected with Mycobacterium tuberculosis H37Rv assessed as body weight at 25 mg/kg, po via gavage administered for 3 weeks starting from day 10 post infection and administered 5 times a week (reference value: 24.59 +/- 0.61 g); format: organism-based; details: in vivo, 504 h
[10] = tested on: Mycobacterium tuberculosis; assay: as §1, with “25” for “100”, “4.94=+/-0.06” for “4.94 +/-0.06”; format: functional

Compound	MIC [1] [µg/mL]	IC50 (Vero) [µg/mL]	remaining at 0.5 h [2] [%]	remaining at 0.5 h [3] [%]	half-life [4] [min]	half-life [5] [min]	other results
COc1cccc(C(=O)OC2CCC(CN3CCN(c4cc(=O)c5cc(C(F)(F)F)cc([N+](=O)[O-])c5s4)CC3)CC2)c1 (centres undefined)	< 0.016	> 64	–	–	–	–	–
O=c1cc(N2CCN(CC3CCC(NP(=O)(Oc4ccccc4)Oc4ccccc4)CC3)CC2)sc2c([N+](=O)[O-])cc(C(F)(F)F)cc12 (centres undefined)	0.076 (≈ 0.108 µM)	> 64	66.1	74.1	50.2	69.2	–
O=C(OC1CCC(CN2CCN(c3cc(=O)c4cc(C(F)(F)F)cc([N+](=O)[O-])c4s3)CC2)CC1)c1ccccc1 (centres undefined)	< 0.016	> 64	68.1	56.4	54.2	36.2	–
O=C(OC1CCC(CN2CCN(c3cc(=O)c4cc(C(F)(F)F)cc([N+](=O)[O-])c4s3)CC2)CC1)c1ccc(F)cc1 (centres undefined)	< 0.016	> 64	1.5	3	4.9	5.9	–
O=C(OC1CCC(CN2CCN(c3cc(=O)c4cc(C(F)(F)F)cc([N+](=O)[O-])c4s3)CC2)CC1)c1ccncc1 (centres undefined)	< 0.016	> 64	1.4	1	4.9	4.5	–
CS(=O)(=O)NC1CCC(CN2CCN(c3cc(=O)c4cc(C(F)(F)F)cc([N+](=O)[O-])c4s3)CC2)CC1 (centres undefined)	> 32	48.4 (≈ 88.3 µM)	111	105	> 93.2	> 93.2	–
O=c1cc(N2CCN(CC3CCCCC3)CC2)sc2c(NO)cc(C(F)(F)F)cc12	0.244 (≈ 0.553 µM)	–	47.8	19.1	–	–	–
O=c1cc(N2CCN(CC3CCC(OS(=O)(=O)c4ccc5ccccc5c4)CC3)CC2)sc2c([N+](=O)[O-])cc(C(F)(F)F)cc12 (centres undefined)	< 0.016	> 64	–	–	–	–	–
O=c1cc(N2CCN(CC3CCC(O)CC3)CC2)sc2c([N+](=O)[O-])cc(C(F)(F)F)cc12 (centres undefined)	0.069 (≈ 0.146 µM)	–	51.2	72.7	–	–	solubility at 20 min [6]: 8.3 µg/mL (≈ 17.6 µM); Activity [7]: 24.75 g; Activity [8]: 4.06 log10CFU
CC(=O)OC1CCC(CN2CCN(c3cc(=O)c4cc(C(F)(F)F)cc([N+](=O)[O-])c4s3)CC2)CC1 (centres undefined)	< 0.016	> 64	0	0	< 9	< 9	–
O=C(OC1CCC(CN2CCN(c3cc(=O)c4cc(C(F)(F)F)cc([N+](=O)[O-])c4s3)CC2)CC1)c1ccco1 (centres undefined)	< 0.016	> 64	0.6	1	< 4.5	4.5	–
O=C(OC1CCC(CN2CCN(c3cc(=O)c4cc(C(F)(F)F)cc([N+](=O)[O-])c4s3)CC2)CC1)c1cccc(F)c1 (centres undefined)	< 0.016	> 64	–	–	–	–	–
Nc1cc(C(F)(F)F)cc2c(=O)cc(N3CCN(CC4CCC(O)CC4)CC3)sc12 (centres undefined)	> 32	–	60	72.9	–	–	–
NC1CCC(CN2CCN(c3cc(=O)c4cc(C(F)(F)F)cc([N+](=O)[O-])c4s3)CC2)CC1 (centres undefined)	0.49 (≈ 1.04 µM)	–	107	83.6	–	–	solubility at 20 min [6]: 43.9 µg/mL (≈ 93.3 µM)
O=c1cc(N2CCN(CC3CCC(OS(=O)(=O)c4ccc5c(c4)CCO5)CC3)CC2)sc2c([N+](=O)[O-])cc(C(F)(F)F)cc12 (centres undefined)	< 0.016	> 64	–	–	–	–	–
COc1ccccc1C(=O)OC1CCC(CN2CCN(c3cc(=O)c4cc(C(F)(F)F)cc([N+](=O)[O-])c4s3)CC2)CC1 (centres undefined)	0.031 (≈ 0.0512 µM)	> 64	–	–	–	–	–
CC(C)S(=O)(=O)OC1CCC(CN2CCN(c3cc(=O)c4cc(C(F)(F)F)cc([N+](=O)[O-])c4s3)CC2)CC1 (centres undefined)	< 0.016	> 64	–	–	–	–	–
O=c1cc(N2CCN(CC3CCC(OS(=O)(=O)c4cccnc4)CC3)CC2)sc2c([N+](=O)[O-])cc(C(F)(F)F)cc12 (centres undefined)	< 0.016	> 64	–	–	–	–	–
COc1ccc(C(=O)OC2CCC(CN3CCN(c4cc(=O)c5cc(C(F)(F)F)cc([N+](=O)[O-])c5s4)CC3)CC2)cc1 (centres undefined)	0.121 (≈ 0.2 µM)	> 64	31	12.2	17.7	9.9	–
Cc1cccc(C(=O)OC2CCC(CN3CCN(c4cc(=O)c5cc(C(F)(F)F)cc([N+](=O)[O-])c5s4)CC3)CC2)c1 (centres undefined)	< 0.016	> 64	–	–	–	–	–
CO[C@H]1/C=C/O[C@@]2(C)Oc3c(C)c(O)c4c(O)c(c(/C=N/N5CCN(C)CC5)c(O)c4c3C2=O)NC(=O)/C(C)=C\C=C\[C@H](C)[C@H](O)[C@@H](C)[C@@H](O)[C@@H](C)[C@H](OC(C)=O)[C@@H]1C [RIFAMPIN]	0.025 (≈ 0.0304 µM)	> 64	–	–	–	–	–

Compound	MIC [1] [µg/mL]	IC50 (Vero) [µg/mL]	remaining at 0.5 h [2] [%]	remaining at 0.5 h [3] [%]	half-life [4] [min]	half-life [5] [min]	other results
O=C(OC1CCC(CN2CCN(c3cc(=O)c4cc(C(F)(F)F)cc([N+](=O)[O-])c4s3)CC2)CC1)C1CCC1 (centres undefined)	0.028 (≈ 0.0506 µM)	> 64	–	–	–	–	–
O=C(NC1CCC(CN2CCN(c3cc(=O)c4cc(C(F)(F)F)cc([N+](=O)[O-])c4s3)CC2)CC1)c1ccccc1 (centres undefined)	0.244 (≈ 0.425 µM)	44.3 (≈ 77.1 µM)	90.6	92.9	> 93.2	> 93.2	–
CC(C)C(=O)OC1CCC(CN2CCN(c3cc(=O)c4cc(C(F)(F)F)cc([N+](=O)[O-])c4s3)CC2)CC1 (centres undefined)	< 0.016	> 64	–	–	–	–	–
NNC(=O)c1ccncc1 [ISONIAZID]	0.039 (≈ 0.284 µM)	–	–	–	–	–	Activity [9]: 24.66 g; Activity [10]: 130 log10CFU
CCCC(=O)OC1CCC(CN2CCN(c3cc(=O)c4cc(C(F)(F)F)cc([N+](=O)[O-])c4s3)CC2)CC1 (centres undefined)	< 0.016	> 64	–	–	–	–	–
O=c1cc(N2CCN(CC3CCCCC3)CC2)sc2c([N+](=O)[O-])cc(C(F)(F)F)cc12	< 0.016	–	80.6	82.4	–	–	solubility at 20 min [6]: < 0.1 µg/mL
CC(=O)NC1CCC(CN2CCN(c3cc(=O)c4cc(C(F)(F)F)cc([N+](=O)[O-])c4s3)CC2)CC1 (centres undefined)	4.71 (≈ 9.19 µM)	> 64	94.9	86.8	> 93.2	> 93.2	–
C=CC(=O)OC1CCC(CN2CCN(c3cc(=O)c4cc(C(F)(F)F)cc([N+](=O)[O-])c4s3)CC2)CC1 (centres undefined)	0.035 (≈ 0.0666 µM)	> 64	–	–	–	–	–
O=C(OC1CCC(CN2CCN(c3cc(=O)c4cc(C(F)(F)F)cc([N+](=O)[O-])c4s3)CC2)CC1)c1cccc(C(F)(F)F)c1 (centres undefined)	< 0.016	> 64	–	–	–	–	–
COP(=O)(NC1CCC(CN2CCN(c3cc(=O)c4cc(C(F)(F)F)cc([N+](=O)[O-])c4s3)CC2)CC1)OC (centres undefined)	3.15 (≈ 5.45 µM)	> 64	–	–	–	–	–
O=C(OC1CCC(CN2CCN(c3cc(=O)c4cc(C(F)(F)F)cc([N+](=O)[O-])c4s3)CC2)CC1)c1cccs1 (centres undefined)	< 0.016	> 64	1.8	2.2	5.2	5.5	–
O=c1cc(N2CCN(CC3CCC(NS(=O)(=O)c4ccccc4)CC3)CC2)sc2c([N+](=O)[O-])cc(C(F)(F)F)cc12 (centres undefined)	0.107 (≈ 0.175 µM)	> 64	95.3	90.8	> 93.2	> 93.2	–
O=C(OC1CCC(CN2CCN(c3cc(=O)c4cc(C(F)(F)F)cc([N+](=O)[O-])c4s3)CC2)CC1)c1ccc(C(F)(F)F)cc1 (centres undefined)	< 0.016	> 64	28.8	5.2	16.7	7	–
Cc1ccc(C(=O)OC2CCC(CN3CCN(c4cc(=O)c5cc(C(F)(F)F)cc([N+](=O)[O-])c5s4)CC3)CC2)cc1 (centres undefined)	0.031 (≈ 0.0526 µM)	> 64	18	9.7	12.1	8.9	–
O=C(OC1CCC(CN2CCN(c3cc(=O)c4cc(C(F)(F)F)cc([N+](=O)[O-])c4s3)CC2)CC1)c1ccc2ccccc2c1 (centres undefined)	0.03 (≈ 0.0479 µM)	> 64	–	–	–	–	–
Nc1cc(C(F)(F)F)cc2c(=O)cc(N3CCN(CC4CCCCC4)CC3)sc12	12.7 (≈ 29.8 µM)	–	69.4	0.9	–	–	–
O=C(OC1CCC(CN2CCN(c3cc(=O)c4cc(C(F)(F)F)cc([N+](=O)[O-])c4s3)CC2)CC1)c1ccc2c(c1)OCC2 (centres undefined)	0.179 (≈ 0.29 µM)	> 64	–	–	–	–	–
CS(=O)(=O)OC1CCC(CN2CCN(c3cc(=O)c4cc(C(F)(F)F)cc([N+](=O)[O-])c4s3)CC2)CC1 (centres undefined)	< 0.016	> 64	–	–	–	–	–
O=C(OC1CCC(CN2CCN(c3cc(=O)c4cc(C(F)(F)F)cc([N+](=O)[O-])c4s3)CC2)CC1)C1CCCCC1 (centres undefined)	< 0.016	> 64	1.2	2.8	4.7	5.8	–
O=c1cc(N2CCN(CC3CCC(OS(=O)(=O)c4ccccc4)CC3)CC2)sc2c([N+](=O)[O-])cc(C(F)(F)F)cc12 (centres undefined)	< 0.016	> 64	–	–	–	–	–
